# Article PMC11150392, “Structure and mechanism of the K^+/H^+ exchanger KefC” (Nature Communications, 2024)
# Target: T1, KefC WT* (Escherichia coli, UniProt P03819)
# T1 construct: lacks final 60 C-terminal residues (WT*); C-terminal TEV-GFP-His8, cleaved for cryo-EM, kept in FSEC stability assays; expressed in E. coli Lemo21(DE3)-type host; homodimer in DDM/GDN
# T1 sequence (P03819 1-560): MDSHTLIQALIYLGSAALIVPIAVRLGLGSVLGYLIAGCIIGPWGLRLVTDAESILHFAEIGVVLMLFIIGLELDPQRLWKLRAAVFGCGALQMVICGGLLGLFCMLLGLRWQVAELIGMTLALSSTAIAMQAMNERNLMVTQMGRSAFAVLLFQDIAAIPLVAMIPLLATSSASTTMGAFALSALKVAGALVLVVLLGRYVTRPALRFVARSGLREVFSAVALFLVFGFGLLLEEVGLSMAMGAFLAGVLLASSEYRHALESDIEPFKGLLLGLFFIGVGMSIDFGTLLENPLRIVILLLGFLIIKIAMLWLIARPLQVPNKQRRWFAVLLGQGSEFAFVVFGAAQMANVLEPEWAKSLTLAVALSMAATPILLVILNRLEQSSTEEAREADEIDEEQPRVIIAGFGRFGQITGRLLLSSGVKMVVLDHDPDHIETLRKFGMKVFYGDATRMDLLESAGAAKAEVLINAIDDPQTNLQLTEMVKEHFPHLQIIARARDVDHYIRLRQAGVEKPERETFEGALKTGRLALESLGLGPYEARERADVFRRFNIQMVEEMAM
# Test: FSEC thermostabilization of purified GFP fusion
# Format: binding
# Details: 40 °C 10 min, 1% beta-OG, DDM, 1 mM AMP, pH 7.5; dimer interface; Supplementary Fig. 5b; PG modelled (PGW), map density not unambiguous
structure (smiles),measurement,value
CCCCCCCC/C=C\CCCCCCCC(=O)OC[C@H](COP(=O)(O)OCC(O)CO)OC(=O)CCCCCCC/C=C\CCCCCCCC (stereo partly shown) [DOPG],FSEC thermostabilization of purified GFP fusion,The clearest thermostabilization of the KefC homodimer was observed upon addition of PG lipids
